Source: patent publication US8530461B2 (Boehringer Ingelheim International GmbH, priority 2011, dated 2013)

What follows are compounds tested against T1, human ACC2 (Homo sapiens, UniProt O00763) (assay: ACC2 assay, spectrophotometric 384 well assay (NADH-linked, coupled lactate dehydrogenase/pyruvate kinase)). Conditions: ACC2 assay; human ACC2 construct lacking 128 N-terminal amino acids; 25° C., 340 nm, 15 minutes; read-out: IC50.
T1 construct: made in house; host or cells: insect cells (baculoviral expression system)
Format: biochemical
Experimental: Spectrophotometric 384 Well Assay
Malonyl CoA formation by acetyl CoA carboxylases is stoichometrically linked to the consumption of ATP. ACC2 activity is measured in a NADH-linked kinetic method measuring ADP generated during the ACC reaction using a coupled lactate dehydrogenase/pyruvate kinase reaction.
For biological testing, a human ACC2 construct which lacks the 128 amino acids at the N-terminus for increased solubility (nt 385-6966 in Genbank entry AJ575592) is cloned. The protein is then expressed in insect cells using a baculoviral expression system. Protein purification is performed by anion exchange.
All compounds are dissolved in dimethyl sulfoxide (DMSO) to a concentration of 10 mM.
Assay reactions are then carried out in 384-well plates, with hACC2 in an appropriate dilution and at final assay concentrations (f.c.) of 100 mM Tris (pH 7.5), 10 mM trisodium citrate, 25 mM KHCO3, 10 mM MgCl2, 0.5 mg/ml BSA, 3.75 mM reduced L-glutathione, 15 U/ml lactate dehydrogenase, 0.5 mM phosphoenolpyruvate, 15 U/ml pyruvate kinase, compounds at different concentrations at final DMSO concentrations of 1%.
The enzymatic reaction is then started by addition of a mixture of NADH, acetyl Coenzyme A (both […].) and ATP (500 uM f.c.). The decrease of the optical density (slope S) is then determined at 25° C. at a wavelength of 340 nm over 15 minutes in a spectrophotometric reader.
Each assay microtiter plate contains wells with vehicle instead of compound as controls for the non-inhibited enzyme (100% CTL; ‘HIGH’) and wells without acetyl-CoA as controls for non-specific NADH degradation (0% CTL; ‘LOW’).
The slope S is used for calculation of % CTL=(S(compound)−S(‘LOW’))/(S(‘HIGH’)−S(‘LOW’))100. Compounds will give values between 100% CTL (no inhibition) and 0% CTL (complete inhibition).
For IC50 value determination, the sample slope in the presence of the test compound after subtraction of the low controls (S(compound)−S(‘LOW’)) are used.
An IC50 value is derived from the compound slopes at different dosages after subtraction of the low controls (S(compound)−S(‘LOW’)) by non-linear regression curve fitting (equation y=(A+((B−A)/(1+((C/x)^D))))).

T1 sequence (O00763 129-2458 limits assumed): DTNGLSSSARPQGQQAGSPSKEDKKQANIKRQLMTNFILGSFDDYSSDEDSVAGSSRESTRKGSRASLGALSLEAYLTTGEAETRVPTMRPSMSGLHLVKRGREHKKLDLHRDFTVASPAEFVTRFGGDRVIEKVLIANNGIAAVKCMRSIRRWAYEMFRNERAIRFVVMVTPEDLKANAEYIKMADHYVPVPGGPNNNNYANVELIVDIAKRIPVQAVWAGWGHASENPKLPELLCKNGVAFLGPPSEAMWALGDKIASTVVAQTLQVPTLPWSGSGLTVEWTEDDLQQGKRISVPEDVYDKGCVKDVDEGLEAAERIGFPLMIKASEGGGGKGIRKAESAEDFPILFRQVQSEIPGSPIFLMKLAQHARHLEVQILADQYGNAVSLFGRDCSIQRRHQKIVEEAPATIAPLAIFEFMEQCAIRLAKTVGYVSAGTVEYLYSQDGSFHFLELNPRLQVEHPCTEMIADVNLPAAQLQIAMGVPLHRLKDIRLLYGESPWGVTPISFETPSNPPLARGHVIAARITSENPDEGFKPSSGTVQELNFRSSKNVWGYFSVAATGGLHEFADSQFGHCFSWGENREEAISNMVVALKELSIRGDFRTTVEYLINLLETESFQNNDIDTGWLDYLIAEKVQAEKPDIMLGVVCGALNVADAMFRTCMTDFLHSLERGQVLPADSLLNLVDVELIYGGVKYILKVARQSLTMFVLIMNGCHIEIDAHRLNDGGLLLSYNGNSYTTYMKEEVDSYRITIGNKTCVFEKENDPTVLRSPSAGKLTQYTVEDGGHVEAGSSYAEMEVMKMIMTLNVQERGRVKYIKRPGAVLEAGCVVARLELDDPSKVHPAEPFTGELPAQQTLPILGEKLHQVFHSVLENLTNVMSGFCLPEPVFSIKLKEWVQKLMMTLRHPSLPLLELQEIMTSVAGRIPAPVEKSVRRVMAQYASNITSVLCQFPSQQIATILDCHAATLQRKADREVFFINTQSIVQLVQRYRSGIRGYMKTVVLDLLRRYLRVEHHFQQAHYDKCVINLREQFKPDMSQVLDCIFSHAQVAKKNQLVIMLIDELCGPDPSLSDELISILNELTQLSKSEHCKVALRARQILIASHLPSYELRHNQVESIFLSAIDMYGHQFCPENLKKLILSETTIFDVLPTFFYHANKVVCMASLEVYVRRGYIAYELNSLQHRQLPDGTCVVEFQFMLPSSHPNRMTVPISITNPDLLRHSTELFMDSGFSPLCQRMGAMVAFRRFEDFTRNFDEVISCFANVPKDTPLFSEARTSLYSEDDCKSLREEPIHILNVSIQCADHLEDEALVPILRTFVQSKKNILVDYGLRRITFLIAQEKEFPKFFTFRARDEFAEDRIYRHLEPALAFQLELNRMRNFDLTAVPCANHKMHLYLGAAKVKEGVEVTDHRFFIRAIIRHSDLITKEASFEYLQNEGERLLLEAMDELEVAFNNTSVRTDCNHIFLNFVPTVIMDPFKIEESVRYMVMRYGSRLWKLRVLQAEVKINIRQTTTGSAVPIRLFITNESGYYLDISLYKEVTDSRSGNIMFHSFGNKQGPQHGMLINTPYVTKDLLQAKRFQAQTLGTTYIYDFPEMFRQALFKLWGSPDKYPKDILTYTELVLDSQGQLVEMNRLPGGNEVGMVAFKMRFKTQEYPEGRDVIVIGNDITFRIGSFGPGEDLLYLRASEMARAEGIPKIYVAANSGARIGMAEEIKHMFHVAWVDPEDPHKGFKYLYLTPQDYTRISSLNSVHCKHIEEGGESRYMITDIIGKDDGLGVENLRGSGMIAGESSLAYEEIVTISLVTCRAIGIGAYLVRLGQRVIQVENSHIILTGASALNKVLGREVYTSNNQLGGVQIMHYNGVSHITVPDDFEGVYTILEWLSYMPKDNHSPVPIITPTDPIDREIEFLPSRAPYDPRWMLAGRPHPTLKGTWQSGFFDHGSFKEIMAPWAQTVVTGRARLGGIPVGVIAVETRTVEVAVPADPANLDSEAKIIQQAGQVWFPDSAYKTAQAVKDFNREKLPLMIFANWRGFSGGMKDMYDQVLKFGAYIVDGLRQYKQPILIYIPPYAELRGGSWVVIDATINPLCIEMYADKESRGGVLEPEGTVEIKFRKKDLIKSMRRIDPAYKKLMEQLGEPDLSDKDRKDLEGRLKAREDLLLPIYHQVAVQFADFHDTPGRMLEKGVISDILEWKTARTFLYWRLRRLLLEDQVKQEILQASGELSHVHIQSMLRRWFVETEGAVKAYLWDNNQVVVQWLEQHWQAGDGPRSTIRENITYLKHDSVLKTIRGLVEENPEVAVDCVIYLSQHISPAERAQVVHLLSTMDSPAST

Compound | IC50
CCOc1ccc(OC2CN(c3ccc([C@H](C)NC(=O)c4cc(C)nn4C)cc3)C2)cc1 [Example 1.31] | 1750 nM
CCOc1ccc(OC2CN(c3ccc([C@H](C)NC(=O)c4ccoc4C)cc3)C2)cc1 [Example 2.3] | 820 nM
CCOc1ccc(OC2CN(c3ccc([C@H](C)NC(=O)CC#N)cc3)C2)cc1 [Example 1.83] | 590 nM
COCCOc1ccc(OC2CN(c3ccc([C@H](C)NC(C)=O)cc3)C2)cc1 [Example 10.19] | 140 nM
CC(=O)N[C@@H](C)c1ccc(N2CC(Oc3ccc(OC(C)(C)C)cc3)C2)cc1 [Example 10.5] | 640 nM
CCOc1ccc(OC2CN(c3ccc([C@H](C)NC(C)=O)cc3)C2)c(F)c1 [Example 7.1, (S)—N-(1-{4-[3-(4-Ethoxy-2-fluoro-phenoxy)-azetidin-1-yl]-phenyl}-ethyl)-acetamide] | 120 nM
CCOc1ccc(OC2CN(c3ccc([C@H](C)NC(=O)C(C)F)cc3)C2)cc1 (some centres unmarked) [Example 1.43] | 320 nM
CCOc1ccc(OC2CN(c3ccc([C@H](C)NC(=O)C4CC4)cc3)C2)c(F)c1 [Example 7.2, (S)-Cyclopropanecarboxylic acid (1-{4-[3-(4-ethoxy-2-fluoro-phenoxy)-azetidin-1-yl]-phenyl}-ethyl)-amide] | 2420 nM
CC(=O)N[C@@H](C)c1ccc(N2CC(Oc3cccc(OC4CCOC4)n3)C2)cc1 (some centres unmarked) [Example 12.8] | 1750 nM
CCOc1ccc(OC2CN(c3ccc([C@H](C)NC(=O)c4cn[nH]c4)cc3)C2)c(F)c1 [Example 8.2, (S)-1H-Pyrazole-4-carboxylic acid (1-{4-[3-(4-ethoxy-2-fluoro-phenoxy)-azetidin-1-yl]-phenyl}-ethyl)-amide] | 2980 nM
CC(=O)N[C@@H](C)c1ccc(N2CC(Oc3ccc(Cl)cc3F)C2)cc1 [Example 10.16] | 2230 nM
CC(=O)N[C@@H](C)c1ccc(N2CC(Oc3ccc(OCc4ccccc4)cc3)C2)cc1 [Example 8.5, (S)—N-(1-{4-[3-(4-Benzyloxy-phenoxy)-azetidin-1-yl]-phenyl}-ethyl)-acetamide] | 140 nM
CCOCC(=O)N[C@@H](C)c1ccc(N2CC(Oc3ccc(OCC)cc3)C2)cc1 [Example 1.62] | 2500 nM
CCOc1ccc(OC2CN(c3ccc([C@H](C)NC(=O)c4occc4C)cc3)C2)cc1 [Example 1.42] | 1700 nM
CCOc1ccc(OC2CN(c3ccc([C@H](C)NC(=O)CO)cc3)C2)cc1 [Example 1.28] | 1010 nM
CCOc1ccc(OC2CN(c3ccc([C@H](C)NC(=O)CC)cc3)C2)cc1 [Example 1.2] | 150 nM
CCOc1ccc(OC2CN(c3ccc([C@H](C)NC(=O)NC)cc3)C2)cc1 [Example 4.3] | 1000 nM
CCOc1ccc(OC2CN(c3ccc([C@H](C)NC(=O)c4cnn(C)c4)cc3)C2)cc1 [Example 1.21] | 480 nM
CCOc1cc(F)c(OC2CN(c3ccc([C@H](C)NC(=O)C4CC4)cc3)C2)c(F)c1 [Example 10.23] | 130 nM

Compound | IC50
CCOc1ccc(OC2CN(c3ccc([C@H](C)NC4=CC(=O)OC4)cc3)C2)cc1 [Example 5.1, (S)-4-(1-{4-[3-(4-Ethoxy-phenoxy)-azetidin-1-yl]-phenyl}-ethylamino)-5H-furan-2-one] | 340 nM
CCOc1ccc(OC2CN(c3ccc([C@H](C)NC(=O)c4oc(C)nc4C)cc3)C2)cc1 [Example 1.39] | 2250 nM
CC(=O)N[C@@H](C)c1ccc(N2CC(Oc3ccc(-n4cccc4)cc3Cl)C2)cc1 [Example 10.3] | 910 nM
CCOc1ccc(OC2CN(c3ccc([C@H](C)NC(=O)CC4CC4)cc3)C2)cc1 [Example 1.15] | 2560 nM
CCOc1ccc(OC2CN(c3ccc([C@H](C)NC(=O)c4ccncc4)cc3)C2)cc1 [Example 1.26] | 1230 nM
CC(=O)N[C@@H](C)c1ccc(N2CC(Oc3cccc(N4CCC(C)CC4)n3)C2)cc1 [Example 12.4] | 220 nM
CCC(C)c1ccc(OC2CN(c3ccc([C@H](C)NC(C)=O)cc3)C2)cc1 (some centres unmarked) [Example 10.10] | 120 nM
C[C@H](NC(=O)N(C)C1CC1)c1ccc(N2CC(Oc3ccc(OCC4CC4)cc3)C2)cc1 [Example 4.17] | 1130 nM
CCOc1ccc(OC2CN(c3ccc([C@H](C)NC(=O)C4CC(OC)C4)cc3)C2)cc1 (some centres unmarked) [Example 1.19] | 590 nM
C[C@H](NC(=O)CC#N)c1ccc(N2CC(Oc3ccc(OCC4CC4)cc3)C2)cc1 [Example 1.87] | 200 nM
CCOc1ccc(OC2CN(c3ccc([C@H](C)NC(=O)c4ccc(C)c(NC(C)=O)c4)cc3)C2)cc1 [Example 1.69] | 3150 nM
CCOc1c(F)cc(OC2CN(c3ccc([C@H](C)NC(C)=O)cc3)C2)cc1F [Example 10.31] | 300 nM
CCOc1ccc(OC2CN(c3ccc([C@H](C)NC(=O)c4cc(=O)[nH]cn4)cc3)C2)cc1 [Example 1.45] | 2010 nM
CC(=O)N[C@@H](C)c1ccc(N2CC(Oc3ccc(OC(F)(F)F)cc3)C2)cc1 [Example 10.2] | 780 nM
CCOc1ccc(OC2CN(c3ccc([C@H](C)NC(=O)c4cnco4)cc3)C2)cc1 [Example 1.37] | 170 nM
C#CCCC(=O)N[C@@H](C)c1ccc(N2CC(Oc3ccc(OCC)cc3)C2)cc1 [Example 1.77] | 1040 nM
COc1cccc(OC2CN(c3ccc([C@H](C)NC(C)=O)cc3)C2)n1 [Example 14.1, (S)—N-(1-{4-[3-(6-Methoxy-pyridin-2-yloxy)-azetidin-1-yl]-phenyl}-ethyl)-acetamide] | 380 nM
CCOc1ccc(OC2CN(c3ccc([C@H](C)NC(=O)c4sc(C)nc4C)cc3)C2)cc1 [Example 1.76] | 1000 nM
COCCOc1ccc(OC2CN(c3ccc([C@H](C)NC(=O)c4sc(NC(C)=O)nc4C)cc3)C2)cc1 [Example 16.1, (S)-2-Acetylamino-4-methyl-thiazole-5-carboxylic acid [1-(4-{3-[4-(2-methoxy-ethoxy)-phenoxy]-azetidin-1-yl}-phenyl)-ethyl]-amide] | 130 nM

Compound | IC50
C[C@H](NC(=O)C1CC1)c1ccc(N2CC(Oc3ccc(OCC4CC4)cc3)C2)cc1 [Example 2.7] | 70 nM
CCOc1ccc(OC2CN(c3ccc([C@H](C)NC(=O)c4cnc(NC)nc4)cc3)C2)cc1 [Example 1.58] | 3900 nM
CCOc1ccc(OC2CN(c3ccc([C@H](C)NC(=O)N(CC#N)C4CC4)cc3)C2)cc1 [Example 4.12] | 1610 nM
COc1ccc(OC2CN(c3ccc([C@H](C)NC(=O)C4CC4)cc3)C2)cn1 [Example 10.25] | 3370 nM
CC(=O)N[C@@H](C)c1ccc(N2CC(Oc3cccc(OCC4CC4)n3)C2)cc1 [Example 12.2] | 1380 nM
CCOc1ccc(OC2CN(c3ccc([C@H](C)NC(=O)Cc4cc(C)no4)cc3)C2)cc1 [Example 1.54] | 540 nM
CCOc1ccc(OC2CN(c3ccc([C@H](C)NC(=O)C4(C)CC4)cc3)C2)cc1 [Example 1.12] | 230 nM
CCOc1ccc(OC2CN(c3ccc([C@H](C)NC(=O)c4ccno4)cc3)C2)cc1 [Example 2.4] | 290 nM
CC(=O)N[C@@H](C)c1ccc(N2CC(Oc3ccnc(OCC4CC4(F)F)c3)C2)cc1 (some centres unmarked) [Example 11.5] | 100 nM
CC(=O)N[C@@H](C)c1ccc(N2CC(Oc3cccc(N(C)CC(C)(C)O)n3)C2)cc1 [Example 12.1, (S)—N-{1-[4-(3-{6-[(2-Hydroxy-2-methyl-propyl)-methyl-amino]-pyridin-2-yloxy}-azetidin-1-yl)-phenyl]ethyl}-acetamide] | 810 nM
CC(=O)N[C@@H](C)c1ccc(N2CC(Oc3cccc(OC(C)C)n3)C2)cc1 [Example 12.9] | 490 nM
CCOc1ccc(OC2CN(c3ccc([C@H](C)NC(=O)C(C)(C)OC)cc3)C2)cc1 [Example 1.40] | 6430 nM
CCOc1ccc(OC2CN(c3ccc([C@H](C)NC(=O)c4ccc5c(c4)nnn5C)cc3)C2)cc1 [Example 1.48] | 3350 nM
CCCOc1ccc(OC2CN(c3ccc([C@H](C)NC(C)=O)cc3)C2)cc1 [Example 9.3] | 50 nM
CCOc1ccc(OC2CN(c3ccc([C@H](C)NC(=O)c4cn(C)cn4)cc3)C2)cc1 [Example 1.33] | 2520 nM
CCOc1ccc(OC2CN(c3ccc([C@H](C)NC(=O)Nc4ccncn4)cc3)C2)cc1 [Example 4.1, (S)-1-(1-{4-[3-(4-Ethoxy-phenoxy)-azetidin-1-yl]-phenyl}-ethyl)-3-pyrimidin-4-yl-urea] | 3410 nM
CCOc1ccc(OC2CN(c3ccc([C@H](C)NC(=O)C(C)(C)F)cc3)C2)cc1 [Example 1.17] | 280 nM
CCOc1ccc(OC2CN(c3ccc([C@H](C)NC(=O)c4sc(NC(C)=O)nc4-c4ccccc4)cc3)C2)cc1 [Example 1.66] | 550 nM
